According to the NIST ThermoML archive (doi:10.1021/je049787p):

Conditions: 101.3 kPa, Liquid; for electrical conductivity: Alternating current cell with electrodes

C=CCn1cc[n+](C)c1.[Cl-] [1-allyl-3-methylimidazolium chloride]
Conditions	electrical conductivity [S/m]	viscosity [mPa·s]
293.15 K	0.00382	66
303.15 K	0.0044	44.7
313.15 K	0.00501	25.3
323.15 K	0.00562	20.6
333.15 K	0.00624	16.2
